Test results as given in patent US20090012179A1, “Use of Tyrphostins to Stimulate Neurite Outgrowth” (priority 2004, published 2009).
“Also recorded” adds a separate entry of the source.

Key:
ERK [1] = conditions: NS20Y cells; previous study; cited from earlier work
ERK [2] = test: ERK activation in NS20Y neuroblastoma cells, immunoblotting for dually phosphorylated ERK; assay type: cell-based, mouse; conditions: for Effect of inhibitor pretreatment on A9-stimulated ERK activation: A9 1 μM, 45 minutes; for ERK activation: dually phosphorylated ERK by immunoblotting
SH-SY5Y cells = test: Neurite length in NGF-treated SH-SY5Y neuroblastoma cells; assay type: cell-based, human
Experimental: Analysis of neurite length in SH-SY5Y neuroblastoma cells: SH-SY5Y neuroblastoma cells develop axonal-like processes on treatment with NGF. For analysis of process length, cells (20 fields/well) are randomly photographed at 96 and 168 hours. Neurite lengths are measured on photographic prints using a Houston Instrument HI-PAD digitizing tablet connected to a computer with appropriate software (Bioquant IV); only processes more than twice the cell body length are measured. Data from identically treated wells are combined. […] Histograms are compared using a Mann-Whitney U test (α=0.05), which makes no assumptions about the shape of the distribution.
As disclosed herein, high and sustained ERK activation induces neurite growth in […] neuroblastoma cells and protects neuronal cells from neurotoxins. To test this, SH-SY5Y human neuroblastoma cells were used, which can be induced into neuron-like phenotype by NGF treatment. This is an established method for measuring neurite growth-promoting activity in vitro in Dr. Gold's lab (Gold et al., Neurosignals. 13:122-129, 2004; Gold et al., Exp. Neurol. 147:269-278, 1997). […] Representative micrographs at 168 hours for vehicle (control), NGF (10 ng/ml), and NGF (10 ng/ml) plus A9 (100 nM) are shown in FIG. 5B.

PKCζ = target: T1, PKCζ (Homo sapiens, UniProt Q05513); conditions: read-out: IC50 for activation of PKCζ; cited from earlier work
T1 sequence (Q05513 1-592): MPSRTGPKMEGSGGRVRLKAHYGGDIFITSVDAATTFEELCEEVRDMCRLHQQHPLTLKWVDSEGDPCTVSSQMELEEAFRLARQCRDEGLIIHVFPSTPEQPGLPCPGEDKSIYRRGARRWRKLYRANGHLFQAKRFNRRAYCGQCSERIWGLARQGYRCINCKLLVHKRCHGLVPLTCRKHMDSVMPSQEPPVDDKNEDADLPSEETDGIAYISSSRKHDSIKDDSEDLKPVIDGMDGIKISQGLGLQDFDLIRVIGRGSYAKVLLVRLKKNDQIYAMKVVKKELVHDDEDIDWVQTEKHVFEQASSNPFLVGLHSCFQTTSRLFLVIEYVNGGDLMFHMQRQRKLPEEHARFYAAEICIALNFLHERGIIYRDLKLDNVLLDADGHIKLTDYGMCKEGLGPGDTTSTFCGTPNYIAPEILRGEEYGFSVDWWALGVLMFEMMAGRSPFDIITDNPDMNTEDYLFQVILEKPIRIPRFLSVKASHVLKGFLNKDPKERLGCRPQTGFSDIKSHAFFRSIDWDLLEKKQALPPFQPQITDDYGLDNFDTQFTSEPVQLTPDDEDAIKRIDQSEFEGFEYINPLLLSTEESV

Compound	Effect of inhibitor pretreatment on A9-stimulated ERK activation (ERK [2])	ERK activation (ERK [2])	further results
CC(C)(C)n1nc(-c2ccc(Cl)cc2)c2c(N)ncnc21 [PP2]	failed to prevent A9-stimulated ERK activity	–	Block of ERK activation induced by quinpirole (ERK [1]): block ERK activation induced by quinpirole
Cc1cc2ncc(-c3ccccc3)nc2cc1C [AG1295]	–	did not stimulate ERK; also recorded: little or no effect	–
COc1cccc(-c2cc(=O)c3ccccc3o2)c1N [PD98059, reference compound]	prevented A9 from stimulating ERK activation	–	Effect of MEK inhibitor on A9-induced neurite outgrowth (SH-SY5Y cells; SH-SY5Y cells): did inhibit A9-induced neurite outgrowth
CN[C@@H]1C[C@H]2O[C@@](C)([C@@H]1OC)n1c3ccccc3c3c4c(c5c6ccccc6n2c5c31)C(=O)NC4 [stauosporine]	prevented A9 from stimulating ERK activation	–	–
CC(C)(C)c1cc(/C=C(\C#N)C(N)=S)cc(C(C)(C)C)c1O [AG879]	–	little or no effect	ERK stimulation (ERK [2]; at 0.1 μM): moderate stimulation of ERK; ERK stimulation (ERK [2]; at 1 μM): showed no effect
N#CC(=Cc1ccc2[nH]ccc2c1)C(N)=C(C#N)C#N [AG370]	–	moderate stimulation of ERK; also recorded: little or no effect	–
N#CC(C#N)=Cc1cc(O)c(O)c(O)c1 [AG82]	did not prevent the effect of A9	did not stimulate ERK	–
CN(C)CCCn1cc(C2=C(c3c[nH]c4ccccc34)C(=O)NC2=O)c2ccccc21 [BisI, bisindolylmaleimide I]	failed to prevent A9-stimulated ERK activity	–	IC50 (PKCζ): 5.8 µM
NGF: nerve growth factor	–	–	Development of axonal-like processes (SH-SY5Y cells; SH-SY5Y, NGF 10 ng/ml alone): developed long axonal-like processes
